Test results published in PubChem BioAssay (NCI).
“And” between values parts separate entries of the source, which are not always exact repeats. Equal values may be shown once.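 Tested at 5 concentrations; 48 h exposure; 96-well plates; endpoints linearly interpolated, else capped at highest concentration. The concentration for 50% growth inhibition is given as GI50. TGI: total growth inhibition.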

Assays:
Assay in all cases: inhibition of tumour cell growth, NCI panel, 48 h
[1] = tested on: K-562 leukemia
[2] = tested on: M14 melanoma
[3] = tested on: EKVX NSCLC
[4] = tested on: NCI-H23 lung
[5] = tested on: SN12C renal
[6] = tested on: SR leukemia
[7] = tested on: SK-OV-3 ovarian
[8] = tested on: RXF 393 renal
[9] = tested on: SK-MEL-28 melanoma
[10] = tested on: COLO 205 colon

SMILES | GI50 [1] | TGI [1] | GI50 [2] | TGI [2] | GI50 [3] | TGI [3] | GI50 [4] | TGI [4] | GI50 [5] | TGI [5] | GI50 [6] | TGI [6] | GI50 [7] | TGI [7] | GI50 [8] | TGI [8] | GI50 [9] | TGI [9] | GI50 [10] | TGI [10]
CN1CCN(CC(=O)N(C)c2ccc(N=C(c3ccccc3)c3c(O)[nH]c4ccc(C#N)cc34)cc2)CC1 | 0.575 µM | 11.6 µM | 1.51 µM | 3.27 µM | 5.27 µM | 19.7 µM | 2.87 µM | 12.2 µM | 1.56 µM | 11.4 µM | 0.721 µM | 5.62 µM | 0.614 µM | 21.1 µM | 1.39 µM | 3.38 µM | 2.21 µM | 4.62 µM | 0.528 µM | 12.4 µM
COc1ccccc1NC(=O)C1=C(C)NC(C)=C(C(=O)Nc2ccccc2OC)C1c1ccccc1[N+](=O)[O-] | – | 65 µM | – | 30 µM | – | > 100 µM | – | 43.6 µM | – | 37.4 µM | – | 39.6 µM | – | 68 µM | – | > 100 µM | – | 33.9 µM | – | 31.6 µM
CC(C)/C=C1\CCC(CN(C)C)C1=O (stereo not drawn) | – | 7.85 µM | – | 5.52 µM | – | 15.5 µM | – | 25.4 µM | – | 16.3 µM | – | 4.53 µM | – | 32.4 µM | – | 1.31 µM | – | 5.07 µM | – | 1.41 µM
Nc1nncc2c1c(Br)cn2C1OC(CO)C(O)C1O (stereo not drawn) | – | > 100 µM | – | > 100 µM | – | > 100 µM | – | > 67.6 µM | – | > 100 µM | – | > 100 µM | – | > 100 µM | – | > 100 µM | – | > 100 µM | – | > 100 µM
CC(C)=CCc1cc2c(cc1O)C1=C(C(=O)C3=C(C1=O)S(=O)(=O)CCN3)C(C=C(C)C)O2 (stereo not drawn) | 2.24 µM | 14.6 µM | 0.35 µM | 1.2 µM | 1.55 µM | 6.93 µM | 0.7 µM | 4.01 µM | 0.294 µM | 0.651 µM | 0.87 µM | 10.9 µM | 2.98 µM | 5.54 µM | 0.596 µM | 2.26 µM | 0.541 µM | 1.92 µM | 0.64 µM | 2.41 µM
c1ccc(-c2oc(-c3ccccc3)c(CN3CCCCC3)c2CN2CCCCC2)cc1 | 1.94 µM | 6.51 µM | 1.83 µM | 4.25 µM | 2.99 µM | 14.2 µM | 3.21 µM | 13 µM | 2.84 µM | 12.4 µM | 2.52 µM | 6.06 µM | 3.97 µM | 17 µM | 1.85 µM | 5.74 µM | 1.53 µM | 3.02 µM | 1.45 µM | 5.01 µM
CC(C)N(C(=O)C12C3C4C1C1C2C3C41C#N)C(C)C (stereo not drawn) | – | > 100 µM | – | > 100 µM | – | > 100 µM | – | > 100 µM | – | > 100 µM | – | 45 µM | – | > 100 µM | – | > 100 µM | – | > 100 µM | – | > 100 µM
C=C1C(=O)O[C@H]2[C@H]1CC/C(COC(=O)c1cc(OC)c(OC)c(OC)c1)=C\CC[C@@]1(C)O[C@@H]21 | 0.388 µM | 11.5 µM | 1.27 µM | 3.05 µM | 1.78 µM | 4.5 µM | 1.7 µM | 3.95 µM | 1.24 µM | 3.12 µM | 0.342 µM | 7.33 µM | 5.22 µM | 16.8 µM | 0.299 µM | 1.27 µM | 1.59 µM | 3.37 µM | 1.18 µM | 3.09 µM
COC(=O)C(=O)Cc1nc2ccccc2s1 | – | > 100 µM | – | > 100 µM | – | > 100 µM | – | > 100 µM | – | > 100 µM | – | > 100 µM | – | > 100 µM | – | > 100 µM | – | > 100 µM | – | > 100 µM
COC(=O)CCSC(=O)Nc1ccc(N=Nc2ccccc2)cc1 | – | > 100 µM | – | > 100 µM | – | > 100 µM | – | 92 µM | – | > 100 µM | – | > 100 µM | – | > 100 µM | – | > 100 µM | – | > 100 µM | – | 47.7 µM
O=C1NC(=S)S/C1=C\c1cn(-c2ccccc2)nc1-c1ccccc1 | 7.54 µM | > 100 µM | 6.75 µM | 80.2 µM | 3.03 µM | 23.6 µM | 2.68 µM | 15.9 µM | 9.93 µM | > 100 µM | 7.29 µM | 49.7 µM | 11.9 µM | 42.2 µM | 22.4 µM | 65.2 µM | 9.22 µM | > 100 µM | 21.2 µM | 75.8 µM
COc1ccc(N2C(=O)c3c(c4[nH]c5ccccc5c4c4ccc(C(C)(C)C)cc34)C2=O)cc1 | – | > 100 µM | – | > 100 µM | – | > 100 µM | – | 51 µM | – | > 100 µM | – | 57.2 µM | – | > 100 µM | – | 98.1 µM | – | > 100 µM | – | > 100 µM
C#Cc1cccc(Nc2ncnc3cc(NC(=O)CCl)ccc23)c1 | 0.802 µM | 25 µM | 2.56 µM | 6.4 µM | 2.5 µM | 7.01 µM | 3.26 µM | 8.01 µM | 1.29 µM | 4.81 µM | 0.535 µM | 4.08 µM | 3.5 µM | 11.5 µM | 4.03 µM | 7.78 µM | 3.67 µM | 7.34 µM | 3.62 µM | 7.45 µM
COc1cc(/C=C2\C(=O)N(Cc3ccc(Cl)cc3)c3ccccc32)cc(OC)c1OC | 2.78 µM | 16.4 µM | 2.45 µM | 7.01 µM | 4.15 µM | 34.6 µM | 2.92 µM | 13.5 µM | 2.59 µM | 8.99 µM | 1.51 µM | 4.19 µM | 6.82 µM | > 89.4 µM | 2.35 µM | 4.95 µM | 1.53 µM | 3.07 µM | 3.15 µM | 8.52 µM
O=C(Nc1ccc(Oc2ccc3nc(NC(=O)c4ccco4)[nH]c3c2)cc1)Nc1cc(C(F)(F)F)ccc1F | 0.0122 µM | 6.11 µM | 0.786 µM | 5.16 µM | 1.75 µM | > 25 µM | 0.852 µM | 9.08 µM | 0.89 µM | 10.9 µM | 0.964 µM | 7.36 µM | 3.44 µM | 12.1 µM | 1.28 µM | 5.13 µM | 2.08 µM | 7.04 µM | 3.02 µM | 11.4 µM
COc1cc(CNCCCCCCN2C(=O)c3cccc4cccc(c34)C2=O)ccc1O | 2.91 µM | 11 µM | 1.97 µM | 3.85 µM | 13.1 µM | 29.8 µM | 10.8 µM | 25.2 µM | 10.1 µM | 22 µM | 2.36 µM | 7.8 µM | 12.3 µM | 24.8 µM | 2 µM | 9.19 µM | 2.06 µM | 4.31 µM | 2.54 µM | 6.62 µM
COC(=O)NC1C(C)OC(OC2C/C=C(/C)C3C=CC4C(OC5CC(OC6CCC(OC7CC(O)C(OC8CCC(O)C(C)O8)C(C)O7)C(C)O6)C(OC(C)=O)C(C)O5)C(C)CC(C)C4C3(C)/C(O)=C3/C(=O)OC4(CC(C=O)=CC(O)C4/C=C\2C)C3=O)CC1(C)[N+](=O)[O-] (stereo not drawn) | 0.218 µM | 11 µM and 12.1 µM | 0.382 µM | 2.42 µM and 1.54 µM | 0.367 µM | 5.49 µM and 0.864 µM | 0.171 µM | 2.22 µM and 0.403 µM | 0.27 µM | 3.32 µM and 0.891 µM | – | 11 µM | 2.85 µM | 7.51 µM and 8.97 µM | 0.158 µM | 1.27 µM and 0.334 µM | 0.0311 µM | – | 0.321 µM | 2.71 µM and 1.08 µM
COc1cc2ccc3c4ccccc4cnc3c2cc1OC | – | > 100 µM | – | > 100 µM | – | > 100 µM | – | > 100 µM | – | > 100 µM | – | > 100 µM | – | > 100 µM | – | > 100 µM | – | > 100 µM | – | > 100 µM
CCOC(=O)c1c(-c2ccccc2)[n+](=O)c2cc(Cl)c(Cl)cc2n1[O-] | 3.29 µM | > 100 µM | 13.3 µM | 27.9 µM | 17.6 µM | 34.5 µM | 10.1 µM | 25.8 µM | 3.03 µM | 22.2 µM | 0.529 µM | > 100 µM | 18.5 µM | 33.6 µM | 6.59 µM | 22.9 µM | 13.7 µM | 36.3 µM | 3.85 µM | 23.6 µM
CCOCC1(COCC)CCC(c2[nH]ncc2CN(C)CCNC)CC1 | 28.8 µM | > 100 µM | > 100 µM | > 100 µM | > 100 µM | > 100 µM | > 100 µM | > 100 µM | > 100 µM | > 100 µM | 23.7 µM | > 100 µM | > 100 µM | > 100 µM | 65.2 µM | > 100 µM | > 100 µM | > 100 µM | > 100 µM | > 100 µM
O=C(Nc1ccc(Oc2ccc(F)cc2)cc1)[C@@H]1C[C@@H](Cc2ccc(F)cc2)CN1C(=O)Cn1ccnn1 | 5.61 µM | > 65 µM | 8.54 µM | 25.7 µM | 7.79 µM | 40.4 µM | 12.1 µM | 35.5 µM | 5.73 µM | 21.8 µM | 3.14 µM | 14.2 µM | 19.5 µM | > 75.7 µM | 2.85 µM | 11.6 µM | 6.72 µM | 20.6 µM | 5.21 µM | 16.8 µM
COc1cc2oc(-c3cccc(C(=O)Nc4ccc(Cl)cc4)c3)cc(=O)c2c(OC)c1OC | 2.77 µM | > 100 µM | 1.38 µM | 4.73 µM | 2.43 µM | > 100 µM | 3.6 µM | > 100 µM | 3.49 µM | > 100 µM | 0.493 µM | > 100 µM | 3.41 µM | > 100 µM | 1.25 µM | 5.09 µM | 1.84 µM | 5.89 µM | 1.47 µM | 4.04 µM
O=C1/C(=C/c2ccc(Cl)c(Cl)c2)CN(C(=O)C(Cl)Cl)C/C1=C\c1ccc(Cl)c(Cl)c1 | 0.0369 µM | > 36.2 µM | 0.206 µM | 0.587 µM | 0.223 µM | 0.757 µM | 0.136 µM | 0.567 µM | 0.139 µM | 0.461 µM | 0.0267 µM | > 100 µM | 0.558 µM | 1.82 µM | 0.164 µM | 0.337 µM | 0.252 µM | 0.634 µM | 0.178 µM | 0.638 µM
CCN1CCN(c2nc(C)cc(N(CCCNc3ccnc4cc(Cl)ccc34)Cc3ccc4c(c3)OCO4)n2)CC1 | 0.361 µM | 1.51 µM | 1.8 µM | 3.38 µM | 2.6 µM | 10.9 µM | 2.61 µM | 10.1 µM | 2.03 µM | 5.55 µM | 0.339 µM | 1.58 µM | 2.58 µM | 6.7 µM | 1.54 µM | 3.12 µM | 1.61 µM | 3.11 µM | 1.7 µM | 3.46 µM
